Test results reported in ChEMBL document CHEMBL5726083, “Perfluorinated cyclopropyl fused 1,3-oxazin-2-amine compounds as beta-secretase inhibitors and methods of use” (2017).

Target: Cathepsin D (Homo sapiens, UniProt P07339)
Assay: In Vitro Enzymatic FRET Assay: Recombinant Cat D was expressed in CHO cells. The assay buffer for CathepsinD is 0.05 M citrate pH 3.5, 10% DMSO final, 5 mM CHAPS. The Cat D enzyme (9 nM) is pre-incubated for one hour with inhibitors, typically in about 1 uL of DMSO according to a serial dilution, is added thereto. The assays are effectively started by the addition of different FRET substrates (20 nM for Cat D) and the combination is incubated for one hour. The FRET assay is terminated with by addition of Tris buffer, which raises the pH to neutrality, and the fluorescence is determined. The FRET substrate is a peptide with commercially available fluorophore and quencher, on opposite sides of the BACE cleavage site. […] Proteolytic cleavage of the FRET substrate releases quenching of fluorescence (Cat D excitation 500 nm and emission 580 nm).
Assay type: cell-based

Chain of Cathepsin D (P07339 65-162 limits assumed): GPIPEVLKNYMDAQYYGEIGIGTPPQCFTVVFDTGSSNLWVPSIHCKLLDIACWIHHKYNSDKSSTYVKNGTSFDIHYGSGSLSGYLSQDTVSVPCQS
Chain of Cathepsin D (P07339 169-412 limits assumed): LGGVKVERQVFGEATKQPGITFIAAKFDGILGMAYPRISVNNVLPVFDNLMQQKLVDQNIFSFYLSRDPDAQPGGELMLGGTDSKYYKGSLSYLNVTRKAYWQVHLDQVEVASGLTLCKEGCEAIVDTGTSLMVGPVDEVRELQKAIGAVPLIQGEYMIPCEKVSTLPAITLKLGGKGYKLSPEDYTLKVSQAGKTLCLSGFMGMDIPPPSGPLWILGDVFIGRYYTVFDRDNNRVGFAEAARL

Row | SMILES | IC50 [µM]
1 | Cc1cc(OC(F)F)cnc1C(=O)Nc1ccc(Cl)c(C2(C(F)F)N=C(N)O[C@@H]3C[C@@H]32)c1 (some centres not stated) | 958
2 | NC1=N[C@](CF)(c2cc(NC(=O)c3ccc(Cl)cn3)cc(F)c2F)[C@H]2CC2O1 (mixture of isomers) | 229
